Assay results as given in patent US9409966B2, “Glucagon-like peptide-1 derivatives and their pharmaceutical use” (priority 2007, dated 2016).
Like-named read-outs stand apart in the source and are kept apart here. *1 amine or outer side, *2 acyl side, *3 side chain or, on linkers, in order; H or OH if unused. Where a SMILES comes first, the peptide text is derived from it. Side-chain parts run from the residue outwards. [ ]: non-standard residue; d: D form. The star is where a group is joined. C18 diacid = O=C(O)CCCCCCCCCCCCCCCCC(=O)*; γGlu = O=C(O)[C@H](CCC(=O)[*:2])N[*:1]; AEEA = NCCOCCOCC(=O)O; Aib = CC(C)(N)C(=O)O

Tests used:
[1] = target: human serum albumin (HSA) (Homo sapiens, UniProt P02768); assay: Albumin binding affinity, competition scintillation proximity assay (SPA)
Procedure: Streptavidin-SPA beads (GE Healthcare RPNQ0009) were incubated with biotinylated HSA for 5 hours. The beads were washed with buffer to remove unbound HSA. […] After 20 hours of gentle rocking at room temperature the plates were centrifuged and counted on a TopCounter.

[2] = target: T1, human GLP-1 receptor (Homo sapiens, UniProt P43220); assay: Stimulation of cAMP formation in a cell line expressing the cloned human GLP-1 receptor; type: biochemical
T1 construct: expressed in transfected cells; host or cells: BHK467-12A (tk-ts13) baby hamster kidney cells; purified plasma membranes

[3] = cAMP production, purified plasma membranes from BHK467-12A (tk-ts13), AlphaScreen cAMP Assay Kit, read-out: Potency [EC50/nM]

human serum albumin (HSA), sequence (P02768 25-609): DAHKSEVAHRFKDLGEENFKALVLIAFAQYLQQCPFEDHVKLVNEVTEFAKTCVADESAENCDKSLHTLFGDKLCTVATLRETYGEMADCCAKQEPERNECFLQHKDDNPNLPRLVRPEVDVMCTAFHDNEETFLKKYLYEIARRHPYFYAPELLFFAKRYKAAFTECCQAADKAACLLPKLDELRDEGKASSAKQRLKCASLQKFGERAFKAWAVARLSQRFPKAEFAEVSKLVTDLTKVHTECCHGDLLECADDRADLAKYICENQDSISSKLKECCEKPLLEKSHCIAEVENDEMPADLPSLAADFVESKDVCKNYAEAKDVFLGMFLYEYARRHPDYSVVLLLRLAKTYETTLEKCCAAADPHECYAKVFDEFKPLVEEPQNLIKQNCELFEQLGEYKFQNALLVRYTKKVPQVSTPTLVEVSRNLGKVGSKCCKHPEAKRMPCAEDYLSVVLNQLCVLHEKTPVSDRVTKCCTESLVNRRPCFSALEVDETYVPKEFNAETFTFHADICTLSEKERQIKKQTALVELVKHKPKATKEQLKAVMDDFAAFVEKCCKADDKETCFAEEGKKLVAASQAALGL
T1 sequence (P43220 24-463): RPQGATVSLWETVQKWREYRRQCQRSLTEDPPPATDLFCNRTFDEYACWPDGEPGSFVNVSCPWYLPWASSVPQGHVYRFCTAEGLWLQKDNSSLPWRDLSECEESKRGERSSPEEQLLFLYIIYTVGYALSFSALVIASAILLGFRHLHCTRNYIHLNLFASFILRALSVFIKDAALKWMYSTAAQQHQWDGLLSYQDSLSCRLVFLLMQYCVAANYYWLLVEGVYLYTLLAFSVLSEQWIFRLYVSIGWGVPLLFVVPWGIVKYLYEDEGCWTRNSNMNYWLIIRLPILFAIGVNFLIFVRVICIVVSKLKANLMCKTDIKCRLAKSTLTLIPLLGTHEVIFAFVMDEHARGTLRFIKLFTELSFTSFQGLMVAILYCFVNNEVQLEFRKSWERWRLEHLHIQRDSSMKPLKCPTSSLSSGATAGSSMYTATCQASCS

Row | Structure (SMILES) | EC50 [1] [nM] | EC50 [2, 3] [nM] | EC50 [2] [nM]
1 | CC[C@H](C)[C@H](NC(=O)[C@H](Cc1ccccc1)NC(=O)[C@H](CCC(=O)O)NC(=O)[C@H](CCCNC(=N)N)NC(=O)[C@H](C)NC(=O)[C@H](C)NC(=O)[C@H](CCC(N)=O)NC(=O)[C@H](CCC(=O)O)NC(=O)[C@H](CCC(=O)O)NC(=O)[C@H](CC(C)C)NC(=O)[C@H](Cc1ccc(O)cc1)NC(=O)[C@H](CO)NC(=O)[C@H](CO)NC(=O)[C@@H](NC(=O)[C@H](CC(=O)O)NC(=O)[C@H](CO)NC(=O)[C@@H](NC(=O)[C@H](Cc1ccccc1)NC(=O)[C@@H](NC(=O)CNC(=O)[C@H](CCC(=O)O)NC(=O)[C@H](C)NC(=O)CCc1c[nH]cn1)[C@@H](C)O)[C@@H](C)O)C(C)C)C(=O)N[C@@H](C)C(=O)N[C@@H](Cc1c[nH]c2ccccc12)C(=O)N[C@@H](CC(C)C)C(=O)N[C@H](C(=O)N[C@@H](CCCNC(=N)N)C(=O)NCC(=O)N[C@@H](CCCNC(=N)N)C(=O)N[C@@H](CCCCNC(=O)COCCOCCNC(=O)CC[C@H](NC(=O)CC[C@H](NC(=O)CC[C@H](NC(=O)CCCCCCCCCCCCCCCCCCC(=O)O)C(=O)O)C(=O)O)C(=O)O)C(=O)O)C(C)C [Example 25, N-epsilon37-(2-{2-[2-((S)-4-Carboxy-4-{(S)-4-carboxy-4-[(S)-4-carboxy-4-(19-carboxy-nonadecanoylamino)butyrylamino]butyrylamino}butyrylamino)ethoxy]ethoxy}acetyl)[DesaminoHis7,Glu22,Arg26,Arg34,Lys37]GLP-1-(7-37)] | 150 to 200 | 0.36 | –
2 | CC[C@H](C)[C@H](NC(=O)[C@H](Cc1ccccc1)NC(=O)[C@H](CCC(=O)O)NC(=O)[C@H](CCCNC(=N)N)NC(=O)[C@H](C)NC(=O)[C@H](C)NC(=O)[C@H](CCC(N)=O)NC(=O)[C@H](CCC(=O)O)NC(=O)[C@H](CCC(=O)O)NC(=O)[C@H](CC(C)C)NC(=O)[C@H](Cc1ccc(O)cc1)NC(=O)[C@H](CO)NC(=O)[C@H](CO)NC(=O)[C@@H](NC(=O)[C@H](CC(=O)O)NC(=O)[C@H](CO)NC(=O)[C@@H](NC(=O)[C@H](Cc1ccccc1)NC(=O)[C@@H](NC(=O)CNC(=O)[C@H](CCC(=O)O)NC(=O)C(C)(C)NC(=O)[C@@H](N)Cc1c[nH]cn1)[C@@H](C)O)[C@@H](C)O)C(C)C)C(=O)N[C@@H](C)C(=O)N[C@@H](Cc1c[nH]c2ccccc12)C(=O)N[C@@H](CC(C)C)C(=O)N[C@H](C(=O)N[C@@H](CCCNC(=N)N)C(=O)NCC(=O)N[C@@H](CCCNC(=N)N)C(=O)N[C@@H](CCCCNC(=O)COCCOCCNC(=O)COCCOCCNC(=O)CC[C@H](NC(=O)[C@H]1CC[C@H](CNC(=O)CCCCCCCCCCCCCCCCCCC(=O)O)CC1)C(=O)O)C(=O)O)C(C)C [Example 32, N-epsilon37-[2-(2-{2-[2-(2-{2-[(S)-4-Carboxy-4-({trans-4-[(19-carboxynonadecanoylamino)methyl]cyclohexanecarbonyl}amino)butyrylamino]ethoxy}ethoxy)acetylamino]ethoxy}ethoxy)acetyl][Aib8,Glu22,Arg26,Arg34,Lys37]GLP-1-(7-37)] | 1 to 100 | – | 0.46

The next lines start with results.

Row | EC50 [1] [nM] | EC50 [2, 3] [nM] | Structure (SMILES) | EC50 [2] [nM]
3 | 100 to 150 | 0.05 | CC[C@H](C)[C@H](NC(=O)[C@H](Cc1ccccc1)NC(=O)[C@H](CCC(=O)O)NC(=O)[C@H](CCCNC(=N)N)NC(=O)[C@H](C)NC(=O)[C@H](C)NC(=O)[C@H](CCC(N)=O)NC(=O)[C@H](CCC(=O)O)NC(=O)[C@H](CCC(=O)O)NC(=O)[C@H](CC(C)C)NC(=O)[C@H](Cc1ccc(O)cc1)NC(=O)[C@H](CO)NC(=O)[C@H](CO)NC(=O)[C@@H](NC(=O)[C@H](CC(=O)O)NC(=O)[C@H](CO)NC(=O)[C@@H](NC(=O)[C@H](Cc1ccccc1)NC(=O)[C@@H](NC(=O)CNC(=O)[C@H](CCC(=O)O)NC(=O)C(C)(C)NC(=O)[C@@H](N)Cc1c[nH]cn1)[C@@H](C)O)[C@@H](C)O)C(C)C)C(=O)N[C@@H](C)C(=O)N[C@@H](Cc1c[nH]c2ccccc12)C(=O)N[C@@H](CC(C)C)C(=O)N[C@H](C(=O)N[C@@H](CCCNC(=N)N)C(=O)NCC(=O)N[C@@H](CCCNC(=N)N)C(=O)N[C@@H](CCCCNC(=O)COCCOCCNC(=O)COCCOCCNC(=O)CC[C@H](NC(=O)CCCCCCCCCCCCCCCCC(=O)O)C(=O)O)C(=O)O)C(C)C [Example 27, N-epsilon37-[2-(2-{2-[2-(2-{2-[(S)-4-Carboxy-4-(17-carboxy-heptadecanoylamino)-butyrylamino]-ethoxy}-ethoxy)-acetylamino]-ethoxy}-ethoxy)-acetyl] [Aib8,Glu22,Arg26,Arg34,Lys37]GLP-1-(7-37)] | –
4 | 400 to 800 | 0.1 | CC[C@H](C)[C@H](NC(=O)[C@H](Cc1ccccc1)NC(=O)[C@H](CCC(=O)O)NC(=O)[C@H](CCCNC(=N)N)NC(=O)[C@H](C)NC(=O)[C@H](C)NC(=O)[C@H](CCC(N)=O)NC(=O)[C@H](CCC(=O)O)NC(=O)[C@H](CCC(=O)O)NC(=O)[C@H](CC(C)C)NC(=O)[C@H](Cc1ccc(O)cc1)NC(=O)[C@H](CO)NC(=O)[C@H](CO)NC(=O)[C@@H](NC(=O)[C@H](CC(=O)O)NC(=O)[C@H](CO)NC(=O)[C@@H](NC(=O)[C@H](Cc1ccccc1)NC(=O)[C@@H](NC(=O)CNC(=O)[C@H](CCC(=O)O)NC(=O)[C@H](C)NC(=O)CCc1c[nH]cn1)[C@@H](C)O)[C@@H](C)O)C(C)C)C(=O)N[C@@H](C)C(=O)N[C@@H](Cc1c[nH]c2ccccc12)C(=O)N[C@@H](CC(C)C)C(=O)N[C@H](C(=O)N[C@@H](CCCNC(=N)N)C(=O)NCC(=O)N[C@@H](CCCNC(=N)N)C(=O)N[C@@H](CCCCNC(=O)COCCOCCNC(=O)COCCOCCNC(=O)CC[C@H](NC(=O)CCCCCCCCCCCCCCCCC(=O)O)C(=O)O)C(=O)O)C(C)C [Example 29, N-epsilon37-[2-(2-{2-[2-(2-{2-[(S)-4-Carboxy-4-(17-carboxy-heptadecanoylamino)-butyrylamino]-ethoxy}-ethoxy)-acetylamino]-ethoxy}-ethoxy)-acetyl] [desaminoHis7,Glu22,Arg26,Arg34,Lys37] GLP-1-(7-37)] | –
5 | > 2000 | 1.27 | CC[C@H](C)[C@H](NC(=O)[C@H](Cc1ccccc1)NC(=O)[C@H](CCC(=O)O)NC(=O)[C@H](CCCNC(=N)N)NC(=O)[C@@H](NC(=O)[C@H](C)NC(=O)[C@H](CCC(N)=O)NC(=O)[C@H](CCC(=O)O)NC(=O)[C@H](CCC(=O)O)NC(=O)[C@H](CCCCN)NC(=O)[C@H](Cc1ccc(O)cc1)NC(=O)[C@H](CO)NC(=O)[C@H](CO)NC(=O)[C@@H](NC(=O)[C@H](CC(=O)O)NC(=O)[C@H](CO)NC(=O)[C@@H](NC(=O)[C@H](Cc1ccccc1)NC(=O)[C@@H](NC(=O)CNC(=O)[C@H](CCC(=O)O)NC(=O)C(C)(C)NC(=O)[C@@H](N)Cc1c[nH]cn1)[C@@H](C)O)[C@@H](C)O)C(C)C)C(C)C)C(=O)N[C@@H](C)C(=O)N[C@@H](CCCCNC(=O)COCCOCCNC(=O)COCCOCCNC(=O)CC[C@H](NC(=O)CCCCCCCCCCCCCCCCC(=O)O)C(=O)O)C(=O)N[C@@H](CC(C)C)C(=O)N[C@H](C(=O)N[C@@H](CCCNC(=N)N)C(=O)N[C@@H](CCCNC(=N)N)C(=O)N[C@@H](CCCNC(=N)N)C(=O)N[C@@H](CCCNC(=N)N)C(=O)O)C(C)C [Example 34, N-epsilon31-[2-(2-{2-[2-(2-{2-[(S)-4-Carboxy-4-(17-carboxyheptadecanoylamino)butyrylamino]ethoxy}ethoxy)acetylamino]ethoxy}ethoxy)acetyl][Aib8,Glu22,Val25,Arg26,Lys31,Arg34,Arg35,Arg37]GLP-1-(7-37)] (H-H[Aib]EGTFTSDVSSYKEEQAVREFIAK([AEEA-AEEA-γGlu-C18 diacid])LVRRRR-OH) | –
